Data on two compounds can be found in patent US6809065B2, “Herbicide containing substituted pyrazole derivative as active ingredient” (SDS Biotech K.K., priority 2001, dated 2004).

The structures appear in SMILES notation.

The subject of one data set is Scirpus juncoides. Briefly: Paddy field treatment (Test Example 3). Type of data set: in vivo. The note with it: paddy pot, submerged 4 cm, dropped on water surface 10th day after transplantation, 1 kg active ingredient per hectare, evaluated 21st day. The gist of the method: (§1)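 Paddy soil in pots was puddled and flooded to 4 cm, weeds were sown, and two-leaf Koshihikari rice was transplanted at 3 cm depth. Ten days after transplanting, wettable powder was applied onto the water surface at 1 kg active ingredient per hectare. Herbicidal effect was index-scored 21 days later.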

The test system of the next data set is Monochoria vaginalis. Briefly: Paddy field treatment (Test Example 3). Type of data set: in vivo. The note with it: paddy pot, submerged 4 cm, dropped on water surface 10th day after transplantation, 1 kg active ingredient per hectare, evaluated 21st day. The gist of the method:
as §1

A further data set concerns Ammannia multiflora. Briefly: Paddy field treatment (Test Example 3). Type of data set: in vivo. Conditions: paddy pot, submerged 4 cm, dropped on water surface 10th day after transplantation, 1 kg active ingredient per hectare, evaluated 21st day. In short, it runs like this:
as §1

Data set [1] has as its system wheat (Triticum aestivum). Briefly: Upland field foliage treatment (Test Example 1), crop. Type of data set: in vivo. Conditions: foliage treatment 14th day after sowing, 1 kg active ingredient per hectare, evaluated 21st day, lower index = higher safety. In short, it runs like this: (§2)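 Foliar spray, 1 kg a.i./ha, wettable powder in water, applied 14 d post-sowing; seeds covered by ~1 cm upland soil. Index scoring at 21 d. Higher index = stronger weed control; for crops, lower index = greater safety.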

Data set [2] has as its system soybean (Glycine max). Described as above. Type of data set: in vivo. The note with it: foliage treatment 14th day after sowing, 1 kg active ingredient per hectare, evaluated 21st day, lower index = higher safety. The gist of the method: as §2
Data set [3] has as its system wheat (Triticum aestivum). Briefly: Upland soil treatment (Test Example 2), crop. Type of data set: in vivo. Conditions: soil surface treatment next day after sowing, 1 kg active ingredient per hectare, evaluated 21st day, lower index = higher safety. In short, it runs like this: (§3)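 Applies a soil-surface, pre-emergence spray of 1 kg active ingredient/ha (wettable powder in water) one day after sowing; weed control and crop injury are rated on an index scale three weeks later.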

Data set [4] concerns soybean (Glycine max). Briefly: Upland soil treatment (Test Example 2), crop. Type of data set: in vivo. The note with it: soil surface treatment next day after sowing, 1 kg active ingredient per hectare, evaluated 21st day, lower index = higher safety. The gist of the method: as §3
In data set [5] the test system is Stellaria media. Briefly: Upland soil treatment (Test Example 2). Type of data set: in vivo. The note with it: soil surface treatment next day after sowing, wettable powder, 1 kg active ingredient per hectare, evaluated 21st day after application. The gist of the method: as §3
For data set [6], the system named is Chenopodium album. Briefly: Upland soil treatment (Test Example 2). Conditions: soil surface treatment next day after sowing, wettable powder, 1 kg active ingredient per hectare, evaluated 21st day after application. Type of data set: in vivo. In short, it runs like this:
as §3

The test system of data set [7] is Digitaria adscendens. Briefly: Upland soil treatment (Test Example 2). Type of data set: in vivo. The note with it: soil surface treatment next day after sowing, wettable powder, 1 kg active ingredient per hectare, evaluated 21st day after application. In short, it runs like this:
as §3

For data set [8], the system named is Setaria viridis. Briefly: Upland soil treatment (Test Example 2). Type of data set: in vivo. The note with it: soil surface treatment next day after sowing, wettable powder, 1 kg active ingredient per hectare, evaluated 21st day after application. The gist of the method:
as §3

Data set [9] concerns Stellaria media. Briefly: Upland field foliage treatment (Test Example 1). Type of data set: in vivo. Conditions: foliage treatment 14th day after sowing, wettable powder, 1 kg active ingredient per hectare, evaluated 21st day after application. The gist of the method:
as §2

The test system of data set [10] is Chenopodium album. Briefly: Upland field foliage treatment (Test Example 1). Type of data set: in vivo. Conditions: foliage treatment 14th day after sowing, wettable powder, 1 kg active ingredient per hectare, evaluated 21st day after application. In short, it runs like this:
as §2

Data set [11] deals with Digitaria adscendens. Briefly: Upland field foliage treatment (Test Example 1). Type of data set: in vivo. Conditions: foliage treatment 14th day after sowing, wettable powder, 1 kg active ingredient per hectare, evaluated 21st day after application. The gist of the method:
as §2

Data set [12] has as its system Setaria viridis. Briefly: Upland field foliage treatment (Test Example 1). Type of data set: in vivo. Conditions: foliage treatment 14th day after sowing, wettable powder, 1 kg active ingredient per hectare, evaluated 21st day after application. In short, it runs like this: as §2
The subject of data set [13] is rice (Oryza sative, variety: Koshihikari). Briefly: Paddy field treatment (Test Example 3), crop. Type of data set: in vivo, Oryza sativa. The note with it: transplanted rice two-leaf period, water surface treatment 10th day after transplantation, 1 kg active ingredient per hectare, evaluated 21st day, lower index = higher safety. The gist of the method: as §1
Another data set concerns Echinochloa spp. Briefly: Paddy field treatment (Test Example 3). Type of data set: in vivo, Echinochloa crusgalli. The note with it: paddy pot, submerged 4 cm, dropped on water surface 10th day after transplantation, 1 kg active ingredient per hectare, evaluated 21st day. The gist of the method: as §1

Turning to `CCc1c(Cl)c(-c2ccccc2)nn1CC(=COC)C(=O)OC` [Compound 39], the “Herbicidal activity Scirpus juncoides” value in the data set on Scirpus juncoides was 4 (herbicidal effect of not less than 70% by weight and less than 90% by weight). The “Herbicidal activity Monochoria vaginalis” value in the data set on Monochoria vaginalis was 3 (herbicidal effect of not less than 50% by weight and less than 70% by weight). Moreover, the “Herbicidal activity Ammannia multiflora” value in the data set with Ammannia multiflora was 3 (herbicidal effect of not less than 50% by weight and less than 70% by weight). In addition, the “Herbicidal activity Triticum aestivum” value in [1] is 0 (herbicidal effect of not less than 0% by weight and less than 10% by weight); in data set [3] it was 0 (herbicidal effect of not less than 0% by weight and less than 10% by weight). Besides, the “Herbicidal activity Glycine max” value in the data set on soybean (Glycine max) [2] was 1 (herbicidal effect of not less than 10% by weight and less than 30% by weight); with soybean (Glycine max) [4], 0 (herbicidal effect of not less than 0% by weight and less than 10% by weight). Also, the “Herbicidal activity Stellaria media” value in the data set on Stellaria media [5] is 4 (herbicidal effect of not less than 70% by weight and less than 90% by weight); with Stellaria media [9], 5 (herbicidal effect of not less than 90% by weight). For the same compound, the “Herbicidal activity Chenopodium album” value in the data set on Chenopodium album [6] is 4 (herbicidal effect of not less than 70% by weight and less than 90% by weight); with Chenopodium album [10], 5 (herbicidal effect of not less than 90% by weight). The “Herbicidal activity Digitaria adscendens” value with Digitaria adscendens [7] is 4 (herbicidal effect of not less than 70% by weight and less than 90% by weight); with Digitaria adscendens [11] it was 4 (herbicidal effect of not less than 70% by weight and less than 90% by weight). The “Herbicidal activity Setaria viridis” value with Setaria viridis [8] is 4 (herbicidal effect of not less than 70% by weight and less than 90% by weight); with Setaria viridis [12] it was 4 (herbicidal effect of not less than 70% by weight and less than 90% by weight). Also, the “Herbicidal activity Oryza sativa” value in [13] was 0 (herbicidal effect of not less than 0% by weight and less than 10% by weight). For the same compound, the “Herbicidal activity Echinochloa spp.” value with Echinochloa spp. was 4 (herbicidal effect of not less than 70% by weight and less than 90% by weight).

Consider `CCCc1c(Cl)c(-c2cccc(Cl)c2)nn1CC(=COC)C(=O)OC` [Compound 40], for which the “Herbicidal activity Scirpus juncoides” value in the data set on Scirpus juncoides is 3 (herbicidal effect of not less than 50% by weight and less than 70% by weight). In addition, in the data set on Monochoria vaginalis, the “Herbicidal activity Monochoria vaginalis” value is 3 (herbicidal effect of not less than 50% by weight and less than 70% by weight). Moreover, the “Herbicidal activity Ammannia multiflora” value in the data set on Ammannia multiflora is 3 (herbicidal effect of not less than 50% by weight and less than 70% by weight). The “Herbicidal activity Triticum aestivum” value in data set [1] was 0 (herbicidal effect of not less than 0% by weight and less than 10% by weight); in data set [3] it was 0 (herbicidal effect of not less than 0% by weight and less than 10% by weight). The “Herbicidal activity Glycine max” value in the data set with soybean (Glycine max) [2] is 0 (herbicidal effect of not less than 0% by weight and less than 10% by weight); with soybean (Glycine max) [4], 0 (herbicidal effect of not less than 0% by weight and less than 10% by weight). Further, the “Herbicidal activity Stellaria media” value in the data set with Stellaria media [5] was 4 (herbicidal effect of not less than 70% by weight and less than 90% by weight); with Stellaria media [9], 4 (herbicidal effect of not less than 70% by weight and less than 90% by weight). Further, the “Herbicidal activity Chenopodium album” value with Chenopodium album [6] is 4 (herbicidal effect of not less than 70% by weight and less than 90% by weight); in the data set with Chenopodium album [10] it was 4 (herbicidal effect of not less than 70% by weight and less than 90% by weight). Moreover, the “Herbicidal activity Digitaria adscendens” value is 4 (herbicidal effect of not less than 70% by weight and less than 90% by weight) with Digitaria adscendens [7]; 4 (herbicidal effect of not less than 70% by weight and less than 90% by weight) with Digitaria adscendens [11]. In addition, the “Herbicidal activity Setaria viridis” value is 4 (herbicidal effect of not less than 70% by weight and less than 90% by weight) in the data set with Setaria viridis [8]; 4 (herbicidal effect of not less than 70% by weight and less than 90% by weight) in the data set with Setaria viridis [12]. Further, the “Herbicidal activity Oryza sativa” value in data set [13] is 0 (herbicidal effect of not less than 0% by weight and less than 10% by weight). In the data set on Echinochloa spp., the “Herbicidal activity Echinochloa spp.” value is 3 (herbicidal effect of not less than 50% by weight and less than 70% by weight).
